In patent US20260183350A1, “ANTIBIOTIC-RESISTANT BACTERIA” (priority 2022, published 2026):

Tested on: faecal microbiota
Experiment: Faecal batch culture with antibiotics promoting CRE colonisation: 1H-NMR of nutrients and metabolites
Type: cell-based, human
Conditions: 11 healthy donors, antibiotic at faecal concentration, 24 hours anaerobic
Procedure: The inventors performed faecal culture experiments to measure the effects of eight broad-spectrum antibiotics on the faecal microbiota collected from 11 healthy human donors. Faecal culture experiments were performed under anaerobic conditions using a complex gut growth medium that was designed to mimic the nutrients found in the human distal gut (McDonald, J. A. et al. Evaluation of microbial community reproducibility, stability and composition in a human distal gut chemostat model. J. Microbiol. Methods 95, 167-174 (2013)). […] Moon, Y. S., Chung, K. C. & Gill, M. A. Pharmacokinetics of meropenem in animals, healthy volunteers, and patients. Clin Infect Dis 24, S249-S255 (1997). Kager, L., Brismar, B., Malmborg, A. S. & Nord, C. E. Imipenem concentrations in colorectal surgery and impact on the colonic microflora. Antimicrob Agents Chemother 33, 204-8 (1989). Pletz, M. et al. Ertapenem pharmacokinetics and impact on intestinal microflora, in comparison to those of ceftriaxone, after multiple dosing in male and female volunteers. Antimicrob Agents Chemother 48, 3765-72 (2004). Nord, C. E., Brismar, B., Kasholm-Tengve, B. & Tunevall, G. Effect of piperacillin/tazobactam treatment on human bowel microflora. J Antimicrob Chemother 31, 61-5 (1993). […] Antimicrob Agents Chemother 63, 2244 (2019). Pessôa de Menezes e Silva, C H. Elaboration and evaluation of a new screening medium for detection and presumptive identification of extended-spectrum beta-lactamase-producing organisms (ESBL). Braz J Microbiol 31, 271-274 (2000). Brismar, B., Edlund, C., Malmborg, A. S. & Nord, C. […] Antimicrob Agents Chemother 34, 481-3 (1990)). Cultures were incubated anaerobically at 37° C. for 24 hours. Samples were analysed by ^1H-NMR spectroscopy (for nutrient and metabolite profiling) and […] rRNA gene sequencing with 16S rRNA gene qPCR (for bacterial composition and biomass) (McDonald, J. A. K. et a/. Inhibiting Growth of Clostridioides difficile by Restoring Valerate, Produced by the Intestinal Microbiota. Gastroenterology 155, 1495-1507 (2018)).
Supernatants were prepared from faeces by vortexing 300 mg of faeces in 900 μl of HPLC-grade water for 10 minutes at 3000 rpm followed by centrifugation at 17,000×g for 10 minutes at 4° C. Supernatants were prepared from faecal culture samples by centrifugation at 17,000×g for 10 minutes at 4° C. Supernatants were frozen at −80° C. until they were ready for analysis.
^1H-NMR spectroscopy was performed as previously described (McDonald, J. A. K. et al. Inhibiting Growth of Clostridioides difficile by Restoring Valerate, Produced by the Intestinal Microbiota. Gastroenterology 155, 1495-1507 (2018)). Briefly, sample supernatants were randomized and defrosted at room temperature for 1 hour. Sample supernatants were then centrifuged for 10 min at 17 000×g and 4° C. The pellet was discarded and 400 μl of supernatant was added to 250 μl NMR buffer (28.85 g Na2HPO4, 5.25 g NaH2PO4, 1 mM TSP, 3 mM NaN3, deuterium oxide to 1 L, pH 7.4). 600 μl of sample was used to fill each 5 mm NMR tube to be loaded into the SampleJet system.
^1H-NMR spectroscopy was performed using the Bruker AVANCE III HD 800 MHz spectrometer (Bruker Bio-Spin, Rheinstetten, Germany). 1D spectra (a standard NOESYGPPR1D pulse sequence (RD-90°-t1-90°-tm-90°-ACQ)) as well as 2D spectra (standard 2D JRESGPPRQF pulse sequence) were acquired. A recycle delay of 4 seconds and mixing time of 100 ms was used. The 90° pulse length was approximately 10 μs and 32 scans were recorded.
NMR spectra were imported into MATLAB r2019b (The Mathworks, USA) using an in-house script. Spectra were aligned and the water (4.6-5 ppm) and TSP (−0.2-0.2 ppm) peaks were cut. Compounds were identified by comparison to spectral databases in Chenomx NMR Suite (Chenomx, Canada). Representative peaks were integrated for quantification of compounds.

Molecule | Change in butyrate concentration in faecal cultures
imipenem/cilastatin [IPM] | increased
C[C@@H](O)[C@H]1C(=O)N2C(C(=O)O)=C(S[C@@H]3CN[C@H](C(=O)Nc4cccc(C(=O)O)c4)C3)[C@H](C)[C@H]12 [ETP, ertapenem] | decreased
C[C@@H](O)[C@H]1C(=O)N2C(C(=O)O)=C(S[C@@H]3CN[C@H](C(=O)N(C)C)C3)[C@H](C)[C@H]12 [MEM, meropenem] | increased
